These results are taken from patent US20150297509A1, “IMPLANTABLE DRUG DELIVERY COMPOSITIONS AND METHODS OF TREATMENT THEREOF” (BRAEBURN PHARMACEUTICALS BVBA SPRL, priority 2012, published 2015).

Series [1] can be described thus: in vitro elution of raloxifene from TECOFLEX EG-80A polyurethane implants. In kind it is physicochemical. The settings on record: TECOFLEX EG-80A tubing, 88% API, 10% croscarmellose sodium, 2% stearic acid, about 250 mg raloxifene, 800 mL 0.9% saline at 37° C, weekly exchanges, HPLC, up to 20 weeks. The method, then: (§1) The follow general procedure was followed for the manufacture of API-containing implants.
(§2) Sterilization was accomplished by gamma irradiation of the implants.
The drug blend was 88% API, 10% sorption enhancer, and 2% lubricant. […] A total of about 250 mg raloxifene were loaded into the implant with 10% croscarmellose sodium and 2% stearic acid.

Series [2] can be described thus: in vitro elution of lidocaine from TECOFLEX EG-93A polyurethane implants. In kind it is physicochemical. The settings on record: TECOFLEX EG-93A tubing, about 180 mg pure lidocaine without excipients, 300 mL 0.9% saline at 37° C, daily exchanges, up to 8 days; for release of drug from the implant (in vitro elution): HPLC. The method, then: as §1, §2
A total of about 180 mg pure (100%) lidocaine were loaded into the implant without any excipients (without any sorption enhancer or lubricant).

For series [3] the following is noted: oral dosage form, target oral daily dose about 60 mg; cited from earlier work.

Where a name gives a salt, the structure may show the parent alone.

As for `O=C(c1ccc(OCCN2CCCCC2)cc1)c1c(-c2ccc(O)cc2)sc2cc(O)ccc12` [raloxifene free base, [6-hydroxy-2-(4-hydroxyphenyl)-benzothiophen-3-yl]-[4-[2-(1-piperidyl)ethoxy]phenyl]-methanone], in series [1], the “release of drug from the implant (in vitro elution)” value (from here on “release of drug from the implant”) is listed as “readily released”.

As for `CCN(CC)CC(=O)Nc1c(C)cccc1C` [lidocaine free base], in series [2], the “release of drug from the implant” value is “readily released” and the “in vitro elution rate from the implant” value is reported as “more than 10 mg/day”.

On to `CCN(CC)CC(=O)Nc1c(C)cccc1C` [lidocaine hydrochloride], for which the “release of drug from the implant” value was “No drug was released” in series [2] and “no drug was released” in series [2] (listed as lidocaine HCl).

For `O=C(c1ccc(OCCN2CCCCC2)cc1)c1c(-c2ccc(O)cc2)sc2cc(O)ccc12` [raloxifene hydrochloride], the oral bioavailability in series [3] was around 2%. Besides, the “release of drug from the implant” value in series [1] is listed as “No drug was released”; in series [1] (listed as raloxifene HCI), “no drug was released”.
